Measurements: patent publication US20150344444A1, “BET-PROTEIN-INHIBITING DIHYDROXYQUINOXALINONES” (BAYER PHARMA AKTIENGESELLSCHAFT, priority 2012, published 2015)

Tests used:
[1] = target: T1, BRD4 Bromo Domain 1 [BRD4(1)] (Homo sapiens, UniProt O60885); assay: BRD4(1)/acetylated peptide H4 binding assay (TR-FRET); conditions: inhibition of interaction between His6-tagged BRD4(1) (amino acids 67-152) and acetylated histone H4 peptide
T1 construct: N-terminally His6-tagged BRD4(1) (amino acids 67-152); made in house; host or cells: E. coli
Excerpt: Protein-Protein Interaction Assay: BRD4/Acetylated Peptide H4 Binding Assay
1. Assay Description for BRD4 Bromo Domain 1 [BRD4(1)]
To assess the BRD4(1) binding strength of the substances described in this application, the ability thereof to inhibit the interaction between BRD4(1) and acetylated histone H4 in a dose-dependent manner was quantified.
For this purpose, a time-resolved fluorescence resonance energy transfer (TR-FRET) assay was used, which measures the binding between N-terminally His6-tagged BRD4(1) (amino acids 67-152) and a synthetic acetylated histone H4 (Ac-H4) peptide with sequence GRGK(Ac)GGK(Ac)GLGK(Ac)GGAK(Ac)RHGSGSK-biotin. The recombinant BRD4(1) protein produced in house according to Filippakopoulos et al., Cell, 2012, 149:214-231 was expressed in E. coli and purified by means of (Ni-NTA) affinity and (Sephadex G-75) size exclusion chromatography. The Ac-H4 peptide can be purchased, for example, from Biosyntan (Berlin, Germany).
In the assay, typically 11 different concentrations of each substance (0.1 nM, 0.33 nM, 1.1 nM, 3.8 nM, 13 nM, 44 nM, 0.15 μM, 0.51 μM, 1.7 μM, 5.9 μM and 20 μM) were analysed as duplicates on the same microtitre plate. For this purpose, 100-fold concentrated solutions in DMSO were prepared by serial dilutions (1:3.4) of a 2 mM stock solution into a clear, 384-well microtitre plate (Greiner Bio-One, Frickenhausen, Germany). From this, 50 nl were transferred into a black test plate (Greiner Bio-One, Frickenhausen, Germany). The test was started by the addition of 2 μl of a 2.5-fold concentrated BRD4(1) solution (final concentration typically 10 nM in the 5 μl of reaction volume) in aqueous assay buffer [50 mM HEPES pH 7.5, 50 mM sodium chloride (NaCl), 0.25 mM CHAPS and 0.05% serum albumin (BSA)] to the substances in the test plate. This was followed by a 10-minute incubation step at 22° C. for the pre-equilibration of putative complexes between BRD4(1) and the substances.
The mixture was then incubated in the dark at 22° C. for one hour and then at 4° C. for at least 3 hours and for no longer than overnight. The formation of BRD4(1)/Ac-H4 complexes was determined by the measurement of the resonance energy transfer from the streptavidin-Eu cryptate to the anti-6His-XL665 antibody present in the reaction. For this purpose, the fluorescence emission was measured at 620 nm and 665 nm after excitation at 330-350 nm in a TR-FRET measuring instrument, for example a Rubystar or Pherastar (both from BMG Lab Technologies, Offenburg, Germany) or a Viewlux (Perkin-Elmer). The ratio of the emissions at 665 nm and at 622 nm was taken as an indicator of the amount of BRD4(1)/Ac-H4 complexes formed.
The data (ratios) obtained were normalized, with 0% inhibition corresponding to the mean from the measurements for a set of controls (typically 32 data points) in which all the reagents were present. In these, in place of test substances, 50 nl of DMSO (100%) were used Inhibition of 100% corresponded to the mean from the measurements for a set of controls (typically 32 data points) in which all the reagents except BRD4(1) were present. The IC50 was determined by regression analysis based on a 4-parameter equation (minimum, maximum, IC50, Hill; Y=max+(min−max)/(1+(X/IC50)Hill).

MOLM-13 cells = assay: MOLM-13 cell proliferation assay (alamarBlue); assay type: cell-based; conditions: inhibition of cell proliferation, 96 hours, human AML cell line
Experimental: (§1) In accordance with the invention, the ability of the substances to inhibit cell proliferation was determined Cell viability was determined by means of the alamarBlue® reagent (Invitrogen) in a Victor X3 Multilabel Reader (Perkin Elmer). The excitation wavelength was 530 nm and the emission wavelength […].
The MOLM-13 cells (DSMZ, ACC 554) were sown at a concentration of 4000 cells/well in 100 μl of growth medium (RPMI1640, 10% FCS) on 96-well microtitre plates.
(§2) After overnight incubation at 37° C., the fluorescence values were determined (CI values). Then the plates were treated with various substance dilutions (1E-5 M, 3E-6 M, 1E-6 M, 3E-7 M, 1E-7 M, 3E-8 M, 1E-8 M) and incubated at 37° C. over 96 hours (MOLM-13, B16F10 cells) or 120 hours (MOLP-8 cells). Subsequently, the fluorescence values were determined (CO values). For the data analysis, the CI values were subtracted from the CO values and the results were compared between cells which had been treated with various dilutions of the substance or only with buffer solution. The IC50 values (substance concentration needed for 50% inhibition of cell proliferation) were calculated therefrom.
MOLM-13 human AML (acute myeloid leukaemia) cell line

B16F10 cells = assay: B16F10 cell proliferation assay (alamarBlue); assay type: cell-based; conditions: B16-F10; inhibition of cell proliferation, 96 hours, mouse melanoma cell line
Experimental: as §1
The B16F10 cells (ATCC, CRL-6475) were sown at a concentration of 300-500 cells/well in 100 μl of growth medium (DMEM with phenol red, 10% FCS) on 96-well microtitre plates.
as §2
B16F10 mouse melanoma cell line

MOLP-8 cells = assay: MOLP-8 cell proliferation assay (alamarBlue); assay type: cell-based; conditions: inhibition of cell proliferation, 120 hours, human multiple myeloma cell line
Experimental: as §1
The MOLP-8 cells (DSMZ, ACC 569) were sown at a concentration of 4000 cells/well in 100 μl of growth medium (RPMI1640, 20% FCS) on 96-well microtitre plates.
as §2
MOLP-8 human multiple myeloma cell line

IC50 [1]: 50 nM
IC50 (MOLM-13 cells): 356 nM
IC50 (B16F10 cells): 643 nM
Structure (SMILES): C[C@@H]1C(=O)N(C)c2ccc(Nc3ccc(C(=O)NC4CCN(C)CC4)cc3)cc2N1C1CCCC1 [Example 4, 4-{[(3R)-4-cyclopentyl-1,3-dimethyl-2-oxo-1,2,3,4-tetrahydroquinoxalin-6-yl]amino}-N-(1-methylpiperidin-4-yl)benzamide]
IC50 (MOLP-8 cells): 468 nM
